6 compounds from patent US20110152176A1, “AGR-MEDIATED INHIBITION AND DISPERSAL OF BIOFILMS” (priority 2008, published 2011) can be followed below.

Assay [1] deals with extracellular proteases. The assay is described as follows: Protease activity of AIP-I detached biofilm effluent with inhibitors or activators (Azocoll). The class given is biochemical, Staphylococcus aureus. The settings on record: EGTA 1 mM, PMSF 10 mM (method: 200 mM), DTT 1 mM. As for the experimental part: (§1) Monitoring protease activity. Milk agar plates for detection of protease activity consisted of 3 g/L Tryptic Soy broth, 20 g/L non-fat dry milk, and 15 g/L agar. To determine relative protease activities of strains, assays were performed as described previously using the Azocoll (Calbiochem) reagent (Fournier et al., 2001). For measuring protease levels in biofilm effluents, 100 mL of effluent was collected on ice (about 12 hours) after AIP addition to the biofilm medium. Cells were removed from the effluents through centrifugation and filtering, and ammonium sulfate was added to 60% over one hour at 4° C. to concentrate proteins. The precipitated proteins were pelleted by centrifugation at 19,000 rpm for 30 min, and the pellet was washed and resuspended in 1 ml with 10 mM Tris pH 7.5. For the protease assay, the reaction mixture was supplemented with either 1 mM EGTA, 200 mM PMSF, or 1 mM DTT to gauge relative levels of protease classes.
There are 10 known extracellular proteases produced by most S. aureus strains and expression of all these enzymes is controlled by the agr system (Novick, 2003; Dunman et al., 2001; Ziebandt et al., 2004). These 10 proteases include the metalloprotease aureolysin (aur), two cysteine proteases (scpA and sspB), and seven serine proteases (sspA (V8) and sp1ABCDEF) (Dubin, 2002). To elucidate what class(es) of proteases are prevalent in AIP-treated biofilms, the effluent from a detaching biofilm was assayed for protease activity in the presence of protease inhibitors or activating agents.

Another assay concerns S. aureus SH1000 biofilm. The assay is described as follows: Flow cell biofilm detachment (CLSM, COMSTAT biomass, effluent CFU). In kind it is cell-based, Staphylococcus aureus. The settings on record: for biomass detached: day 2 vs day 4. The procedure: (§2) Biofilm experiments. Microtiter plate biofilms were performed as described (Shanks et al., 2005) except that the plates were incubated at 37° C. with shaking at 200 rpm for 12 hours. For flow cell experiments, AIPs were generated using the DnaB intein method, and the AIP concentrations were determined as previously described (Malone et al., 2007). AIPs stocks (20 mM) were stored in 100 mM phosphate (pH 7), 50 mM NaC1, 1 mM tris(2-carboxyethyl) phosphine (TCEP) and were diluted into the biofilm flow medium to a final concentration of 50 nM. When required, […] of erythromycin and/or chloramphenicol were added to the flow cell media to maintain plasmids. The growth medium for flow cell biofilms consisted of 2% TSB plus 0.2% glucose unless otherwise indicated. Flow cell biofilm experiments and confocal microscopy were performed as previously described (Yarwood et al., 2004). Flow cells were inoculated with overnight cultures diluted 1:100 in sterile water and laminar flow ([…]) was initiated after one hour incubation. Confocal microscopy was performed using a Radiance 2100 system (Biorad) with a Nikon Eclipse E600 microscope. Confocal images were processed using Velocity software (Improvision, Lexington, Mass.). Biofilm biomass was quantified with the COMSTAT program (Heydorn et al., 2000) and percent biomass detached was calculated by subtracting biomass present at day 4 from day 2. To quantitate the number of bacteria detaching from a biofilm, 1 ml of flow cell effluent was collected on ice at indicated time points. The collected effluent was vortexed and sonicated in a water bath for 10 minutes to break up clumps, and serial dilutions were plated on TSA plates to determine colony forming units (CFUs). For the Proteinase K detachment experiments, the enzyme (Sigma-Aldrich) was suspended in water and added to the media reservoir at a final concentration of 2 mg/ml.
AIP detaches S. aureus biofilms. To investigate the role of the agr system in established biofilms, the inventors developed strategies to modulate level of agr activity within a biofilm. Initially, media supplementation experiments were performed using purified AIP signal in order to place the agr system under external control. The inventors recently developed a new method for AIP biosynthesis (Malone et al., 2007), enabling the production of sufficient signal levels for flow cell experiments. Through exogenous AIP addition, they could test wild-type strains and avoid any potential complications of constructed agr deletion mutants. For this approach, established flow cell biofilms were prepared using S. aureus SH1000 constitutively expressing RFP with plasmid pAH9. The flow cell media was supplemented with glucose to attenuate agr expression (Regassa et al., 1992), allowing cell attachment and biofilmdevelopment. After two days, either 1 mL of buffer (100 mM phosphate [pH 7], 50 mMNaCl, 1 mMTCEP; FIG. 2A) or 1 mL of […] in buffer (FIG. 2B and Video S1) was diluted 1000-fold (50 nM final concentration) into the growth media. Using the inventors' synthesized AIP-I in dose-response curves (Malone et al., 2007), the inventors estimate the amount of AIP-I in supernatants of TSB broth cultures (OD600 1.0-1.3) reaches approximately 400 nM (data not shown), indicating the 50 nM level used for the biofilm experiments is within a relevant concentration range. […] To confirm that AIP-I caused detachment, the inventors counted viable S. aureus cells in the effluent media (FIG. 2C). […] In contrast, the number of bacteria in the biofilm effluent without AIP-I addition remained relatively constant.

Assay [2] relates to S. aureus SH1000 biofilm and detached bacteria. Put plainly: Susceptibility of biofilm and detached bacteria to rifampicin killing. The class given is cell-based, Staphylococcus aureus. The settings on record: six hours. As for the experimental part:
Antibiotic sensitivity. S. aureus biofilms were grown for two days in a flow chamber lined with removable polycarbonate coupons (Flow Cell FC271, Biosurface Technologies, Bozeman Mont.). Biofilm effluents were collected on ice about 24 hours after AIP-I addition. In parallel, coupons with biofilm growth were removed from flow cells not exposed to AIP-I. Both detached bacteria and the biofilms were exposed to the indicated levels of rifampicin for six hours. Subsequently, cells were vortexed, and the coupons were sonicated in a water bath to break up the biofilm or cell clumps. Serial dilutions were plated on TSA to determine surviving CFU's.
Detached S. aureus cells regain antibiotic sensitivity. Biofilm growth of S. aureus increases resistance to antimicrobials when compared to the planktonic growth mode (Fux et al., 2004; Yarwood et al., 2004). This Biofilm-mediated resistance hinders treatment of many chronic S. aureus biofilm related infections, including endocarditis, osteomyelitis, and indwelling medical device infections (Parsek and Singh, 2003; Costerton et al., 2003). Therefore, the inventors asked whether AIP-dispersed bacteria regained sensitivity to a clinically relevant antibiotic, rifampicin. To test this, the inventors collected detached cells from an AIP-treated biofilm effluent and compared resistance to intact biofilms exposed to different levels of rifampicin. […]

In assay [3] the test system is FRI1169 (agr Type I) biofilm. The assay is described as follows: Flow cell biofilm detachment, agr-I strain. In kind it is cell-based, Staphylococcus aureus. The settings on record: 2-day old biofilm, 50 nM cognate AIP, over 48 hours. The procedure:
as §2, with “Confocal microscopy was performed using a Radiance 2100 system (Biorad) with a Nikon Eclipse E600 microscope. Confocal images were processed using Velocity software (Improvision, Lexington, Mass.).” left out, “The collected effluent was vortexed and sonicated in a water bath for 10 minutes to break up clumps, and serial dilutions were plated on TSA plates to determine colony forming units (CFUs). For the Proteinase K detachment experiments, the enzyme (Sigma-Aldrich) was suspended in water and added to the media reservoir at a final concentration of 2 mg/ml.” left out

Assay [4] deals with extracellular proteases. Put plainly: Protease activity in biofilm effluents after AIP addition (Azocoll). In kind it is cell-based, Staphylococcus aureus. The settings on record: for protease activity in biofilm effluent relative to biofilm without AIP: wild-type SH1000 biofilm supplemented with AIP. As for the experimental part:
as §1
If S. aureus proteases have a role in detachment, proteinase K should be able to disperse an established biofilm. […] With this preliminary observation, the inventors measured the levels of protease activity in effluents from biofilms with and without AIP-I addition using Azocoll (azo dye-impregnated collagen) reagent. […] With the addition of activating AIP-I, the protease activity increased approximately five-fold compared to a biofilm with no AIP-I treatment.

The next assay relates to agr P3 promoter. The assay is described as follows: agr P3-GFP reporter (pDB59) expression in flow cell biofilms. In kind it is cell-based, Staphylococcus aureus. The procedure: Strains and growth conditions. The bacterial strains and plasmids used in this study are described in Table 1. S. aureus or Escherichia coli were grown in tryptic soy broth (TSB) or on tryptic soy agar (TSA) with the appropriate antibiotics for plasmid selection or maintenance (erythromycin […]; chloramphenicol 10 μg/ml; tetracycline 5 μg/ml) and incubated at 37° C. Plasmid DNA was prepared from E. coli and transformed by electroporation into S. aureus RN4220 as described (Schenk and Laddaga, 1992). Plasmids were moved from RN4220 into other S. aureus strains by transduction with bacteriophage a80 (Novick, 1991) or by purifying the plasmid DNA and transformed by electroporation into appropriate strains. To move sspA and sp1ABCDEF mutations into appropriate genetic backgrounds, phage transduction with a80 was used as described (Novick, 1991). To construct the Daur mutation, the pKOR1-aur plasmid was used as described (Kavanaugh et al., 2007). Fluorescence measurements with S. aureus strains containing pDB59 were performed as previously described (Malone et al., 2007).
(§3) Biofilm experiments. Microtiter plate biofilms were performed as described (Shanks et al., 2005) except that the plates were incubated at 37° C. with shaking at 200 rpm for 12 hours. For flow cell experiments, AIPs were generated using the DnaB intein method, and the AIP concentrations were determined as previously described (Malone et al., 2007). AIPs stocks (20 mM) were stored in 100 mM phosphate (pH 7), 50 mM NaC1, 1 mM tris(2-carboxyethyl) phosphine (TCEP) and were diluted into the biofilm flow medium to a final concentration of 50 nM. When required, […] of erythromycin and/or chloramphenicol were added to the flow cell media to maintain plasmids. […] Biofilm biomass was quantified with the COMSTAT program (Heydorn et al., 2000) and percent biomass detached was calculated by subtracting biomass present at day 4 from day 2. To quantitate the number of bacteria detaching from a biofilm, 1 ml of flow cell effluent was collected on ice at indicated time points. […]

Assay [5] deals with SA502a (agr Type II) biofilm. The assay is described as follows: Flow cell biofilm detachment, agr-II strain. In kind it is cell-based, Staphylococcus aureus. The settings on record: 2-day old biofilm, 50 nM cognate AIP, over 48 hours. As for the experimental part:
as §3, with “plasmids. The growth medium for flow cell biofilms consisted of 2% TSB plus 0.2% glucose unless otherwise indicated. Flow cell biofilm experiments and confocal microscopy were performed as previously described (Yarwood et al., 2004). Flow cells were inoculated with overnight cultures diluted 1:100 in sterile water and laminar flow ([…]) was initiated after one hour incubation.” for “plasmids.”

[6] abbreviates: wild-type SH1000 2-day flow cell biofilm, 50 nM AIP in growth media.
The mark [7] stands for this setting: dual-labeled SH1000 (agr type I) biofilm, 50 nM AIP after two days of growth.

Ends that are not written are not given here.

Turning to `O[C@@H](CS)[C@@H](O)CS` [DTT], the “effect on overall protease activity of effluent” value (shortened to “effect … of effluent”) in the assay with extracellular proteases [1] is listed as “did not significantly change protease activity”.

On to `O=C(O)CN(CCOCCOCCN(CC(=O)O)CC(=O)O)CC(=O)O` [EGTA], for which, in the assay on extracellular proteases [1], the “effect … of effluent” value was “negligible effect”.

On to `O=S(=O)(F)Cc1ccccc1` [PMSF, reference compound], for which the “effect on AIP-I mediated biofilm detachment” value in the assay with S. aureus SH1000 biofilm (10 mM PMSF in combination with AIP-I versus AIP-I alone) is “significantly reduced the level of detachment”. The biomass detached in the assay on S. aureus SH1000 biofilm (wild-type biofilm, 10 mM PMSF in combination with 50 nM AIP-I) is on record as 48.8% (65.2). Moreover, in the assay with extracellular proteases [1], the “effect … of effluent” value is recorded as “reduced overall protease activity to almost undetectable levels”.

For the compound `CO[C@H]1/C=C/O[C@@]2(C)Oc3c(C)c(O)c4c(O)c(c(/C=N/N5CCN(C)CC5)c(O)c4c3C2=O)NC(=O)/C(C)=C\C=C\[C@H](C)[C@H](O)[C@@H](C)[C@@H](O)[C@@H](C)[C@H](OC(C)=O)[C@@H]1C` [rifampicin], the “decrease of viable cells” value in assay [2] (cells detached by AIP-I, 10 mg/ml rifampicin) is reported as 6 log. For the same compound, the “level of rifampicin killing of the biofilm biomass” value in assay [2] (intact biofilm, 100 mg/ml rifampicin) is listed as “about 2 log units”.

As for “AIP-I: autoinducing peptide YSTCDFIM (SEQ ID NO: 1), thiolactone bridge between C-terminal residue and internal cysteine (ester (positions not given here); not fully specified (bridges))”, the “biofilm detachment observed by CLSM” value is recorded as “robust detachment” in assay [3]; “the mutant biofilm did not disperse” in the assay on S. aureus SH1000 biofilm (agr deletion mutant (SH1001) biofilm, AIP-I treatment); “sloughed off the flow cell over a period of 1-2 days” in the assay on S. aureus SH1000 biofilm (setting [6]). Further, the “protease activity in biofilm effluent” value in the assay with extracellular proteases [4] (agr mutant (SH1001) biofilm supplemented with AIP-I) is “very low levels of extracellular proteases”. In the assay on extracellular proteases [4], the “protease activity in biofilm effluent relative to biofilm without AIP” value is given as “approximately five-fold”. Further, the “concentration of bacteria in the effluent (CFU/ml)” value in the assay with S. aureus SH1000 biofilm (24-36 hours after AIP-I addition (50 nM), versus buffer) is listed as “increased markedly”. Besides, the “biomass dispersed / detached” value in the assay on S. aureus SH1000 biofilm (wild-type SH1000, 50 nM AIP-I added to 2-day biofilm, within 48 hrs (day 2 vs day 4), COMSTAT) is on record as 91.3 (64.3) %. Besides, the biomass detached with S. aureus SH1000 biofilm (Δaur mutant biofilm, 50 nM AIP-I) is recorded as 54.6% (68.1); in the assay on S. aureus SH1000 biofilm (Δaur Δspl double mutant biofilm, 50 nM AIP-I), 21.7% (66.6). The “induction of agr P3-GFP reporter” value is given as “lack of GFP induction” in the assay on agr P3 promoter (agr deletion mutant (SH1001) biofilm with dual reporters, AIP-I) and “strong induction of the GFP reporter” with agr P3 promoter (setting [7]).

On to “AIP-II: autoinducing peptide GVNACSSLF (SEQ ID NO: 2), thiolactone bridge between C-terminal residue and internal cysteine (ester (positions not given here); not fully specified (bridges))”, for which the “biofilm detachment observed by CLSM” value in assay [5] is reported as “robust detachment”; with S. aureus SH1000 biofilm (setting [6]), “the biofilm did not disperse”. The “protease activity in biofilm effluent relative to biofilm without AIP” value in the assay with extracellular proteases [4] is recorded as “reduced the level of proteolytic activity”. Moreover, the “induction of agr P3-GFP reporter” value in the assay on agr P3 promoter (setting [7]) is on record as “failed to induce GFP expression”.
